Measured values: US11130740B2, “Substituted 2,3-dihydro-1H-indene analogs and methods using same” (Arbutus Biopharma Corporation, priority 2017, dated 2021)
pIC50: −log10 of the molar value.

Target: PD-L1 His protein / PD-1 Fc protein (Homo sapiens (Human), UniProt Q9NZQ7)
Assay: HTRF assay (PD-1/PD-L1 interaction)
Format: binding
Settings: PD-L1 His 6 nM, PD-1 Fc 6 nM; inhibitors diluted 3-fold from 20 μM
Method: PD-L1 His protein was prepared and added at the final concentration of 6 nM in the White opaque 384 well plate (Corning cat #3824BC). PD-L1 small molecule inhibitors were diluted by 3-fold starting from 20 μM and a final concentration of 0.001 μM and added to the well. PD-1 Fc protein was added at the final concentration of 6 nM. PD-L1 His protein, PD-L1 small molecule inhibitors, and PD1 Fc proteins were added to the well in this order, with each 5 μl volume, and were incubated for 15 minutes at room temperature. PAb anti-Human IgG-XL665 (Cisbio, cat #61HFCXLA) and Mab anti-6HIS Tb cryptate Gold (Cisbio, cat #61HI2TLA) were mixed at 6.7 nM and 0.35 nM respectively, and total 5 μl volume of mixture was added to the well and incubated at room temperature for 1 hour. The plate was read using PerkinElmer Envision plate reader and data was analyzed by Prism 6 software.

Sequence of PD-L1 His protein / PD-1 Fc protein (Q9NZQ7 19-238): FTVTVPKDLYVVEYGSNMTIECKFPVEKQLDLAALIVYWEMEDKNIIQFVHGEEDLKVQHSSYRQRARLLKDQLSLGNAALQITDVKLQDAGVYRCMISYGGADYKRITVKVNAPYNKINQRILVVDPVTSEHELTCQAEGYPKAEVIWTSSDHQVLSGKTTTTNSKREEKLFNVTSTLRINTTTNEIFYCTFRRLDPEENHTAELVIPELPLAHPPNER

SMILES	pIC50
Cc1c(COc2ccc3c(c2)C[C@H](O)[C@@H]3NCCO)cccc1-c1ccccc1 [Compound 10F_1, (1R,2S)-1-((2-hydroxyethyl)amino)-5-((2-methyl-[1,1′-biphenyl]-3-yl)methoxy)-2,3-dihydro-1H-inden-2-ol]	5.88
CC(=O)NCCN[C@@H]1c2ccc(OCc3cccc(-c4ccccc4)c3C)cc2C[C@H]1O [Compound 10A_2_1, N-(2-(((1R,2R)-2-hydroxy-5-((2-methyl-[1,1′-biphenyl]-3-yl)methoxy)-2,3-dihydro-1H-inden-1-yl)amino)ethyl)acetamide]	5.30
Cc1c(COc2ccc3c(c2)C[C@H](O)[C@H]3NCCS(C)(=O)=O)cccc1-c1ccccc1 [Compound 10C_2, (1S,2S)-5-((2-methyl-[1,1′-biphenyl]-3-yl)methoxy)-1-((2-(methylsulfonyl)ethyl)amino)-2,3-dihydro-1H-inden-2-ol]	< 4.70
CC(=O)NCCN[C@H]1c2ccc(OCc3cccc(-c4ccccc4)c3C)cc2C[C@H]1O [Compound 10A_l_1, N-(2-(((1S,2R)-2-hydroxy-5-((2-methyl-[1,1′-biphenyl]-3-yl)methoxy)-2,3-dihydro-1H-inden-1-yl)amino)ethyl)acetamide]	6.06
CC(=O)NCCN[C@H]1c2ccc(OCc3cccc(-c4ccccc4)c3C)cc2C[C@@H]1O [Compound 10A_2_2, N-(2-(((1S,2S)-2-hydroxy-5-((2-methyl-[1,1′-biphenyl]-3-yl)methoxy)-2,3-dihydro-1H-inden-1-yl)amino)ethyl)acetamide]	6.77
Cc1c(COc2ccc3c(c2)C[C@H](O)C3NCCN2CCN(C)CC2)cccc1-c1ccccc1 (stereo partly drawn) [Compound 10D, (2S)-5-((2-methyl-[1,1′-biphenyl]-3-yl)methoxy)-1-((2-(4-methylpiperazin-1-yl)ethyl)amino)-2,3-dihydro-1H-inden-2-ol]	5.29
CC(=O)NCCN[C@@H]1c2ccc(OCc3cccc(-c4ccc5c(c4)OCCO5)c3C)cc2C[C@@H]1O [Compound 10B_1, N-(2-(((1R,2S)-5-((3-(2,3-dihydrobenzo[b][1,4]dioxin-6-yl)-2-methylbenzyl)oxy)-2-hydroxy-2,3-dihydro-1H-inden-1-yl)amino)ethyl)acetamide]	5.50
CC(=O)NCCN[C@H]1c2ccc(OCc3cccc(-c4ccccc4)c3C)cc2C[C@@H]1O [Compound 10A_2, N-(2-(((1S,2S)-2-hydroxy-5-((2-methyl-[1,1′-biphenyl]-3-yl)methoxy)-2,3-dihydro-1H-inden-1-yl)amino)ethyl)acetamide]	6.69
CC(=O)NCCN[C@@H]1c2ccc(OCc3cccc(-c4ccccc4)c3C)cc2C[C@@H]1O [Compound 10A_l, N-(2-(((1R,2S)-2-hydroxy-5-((2-methyl-[1,1′-biphenyl]-3-yl)methoxy)-2,3-dihydro-1H-inden-1-yl)amino)ethyl)acetamide]	5.97
Cc1c(COc2ccc3c(c2)C[C@H](O)[C@H]3NCCO)cccc1-c1ccccc1 [Compound 10F_2, (1S,2S)-1-((2-hydroxyethyl)amino)-5-((2-methyl-[1,1′-biphenyl]-3-yl)methoxy)-2,3-dihydro-1H-inden-2-ol]	5.93
CC(=O)NCCN[C@@H]1c2ccc(OCc3cccc(-c4ccccc4)c3C)cc2C[C@@H]1O [Compound 10A_l_2, N-(2-(((1R,2S)-2-hydroxy-5-((2-methyl-[1,1′-biphenyl]-3-yl)methoxy)-2,3-dihydro-1H-inden-1-yl)amino)ethyl)acetamide]	5.29
CC(=O)NCCNC1COc2cc(OCc3cccc(-c4ccc5c(c4)OCCO5)c3C)ccc21 (stereo not drawn) [Compound 16B, N-(2-((6-((3-(2,3-dihydrobenzo[b][1,4]dioxin-6-yl)-2-methylbenzyl)oxy)-2,3-dihydrobenzofuran-3-yl)amino)ethyl)acetamide]	5.42
Cc1c(COc2ccc3c(c2)C[C@H](O)[C@H]3NCCN2CCOCC2)cccc1-c1ccccc1 [Compound 10E_2, (1S,2S)-5-((2-methyl-[1,1′-biphenyl]-3-yl)methoxy)-1-((2-morpholinoethyl)amino)-2,3-dihydro-1H-inden-2-ol]	5.97
CC(=O)NCCNC1CCc2cc(OCc3cccc(-c4ccc5c(c4)OCCO5)c3C)ccc21 (stereo not drawn) [Compound 16D, N-(2-((5-((3-(2,3-dihydrobenzo[b][1,4]dioxin-6-yl)-2-methylbenzyl)oxy)-2,3-dihydro-1H-inden-1-yl)amino)ethyl)acetamide]	6.49
Cc1c(COc2ccc3c(c2)C[C@H](O)[C@@H]3NCCN2CCOCC2)cccc1-c1ccccc1 [Compound 10E_1, (1R,2S)-5-((2-methyl-[1,1′-biphenyl]-3-yl)methoxy)-1-((2-morpholinoethyl)amino)-2,3-dihydro-1H-inden-2-ol]	5.11
Cc1c(COc2ccc3c(c2)C[C@H](O)[C@@H]3NCCS(C)(=O)=O)cccc1-c1ccccc1 [Compound 10C_l, (1R,2S)-5-((2-methyl-[1,1′-biphenyl]-3-yl)methoxy)-1-((2-(methylsulfonyl)ethyl)amino)-2,3-dihydro-1H-inden-2-ol]	< 4.70
CC(=O)NCCNC1CCc2cc(OCc3cccc(-c4ccccc4)c3C)ccc21 (stereo not drawn) [Compound 16C, N-(2-((5-((2-methyl-[1,1′-biphenyl]-3-yl)methoxy)-2,3-dihydro-1H-inden-1-yl)amino)ethyl)acetamide]	6.42
CC(=O)NCCNC1COc2cc(OCc3cccc(-c4ccccc4)c3C)ccc21 (stereo not drawn) [Compound 16A, N-(2-((6-((2-methyl-[1,1′-biphenyl]-3-yl)methoxy)-2,3-dihydrobenzofuran-3-yl)amino)ethyl)acetamide]	5.44
